Assay results as given in US7034016B2, “8-phenyl-6,9-dihydro-[1,2,4]triazolo[3,4-i]purin-5-one derivatives” (Almirall Prodesfarma, S.A., priority 1999, dated 2006).

The molecules below were run against T1, cyclic GMP specific phosphodiesterase (PDE 5) (Homo sapiens, UniProt O76074) (assay: PDE 5 inhibitory activity (enzyme isolated from human platelet lysates, [3H]-cyclic GMP substrate)). Conditions: PDE 5 from human platelet lysates; 0.25 mM [3H]-cyclic GMP as substrate.
T1 construct: isolated from human platelet lysates by ion exchange chromatography using a Mono-Q column; from tissue; host or cells: human platelets (lysate, Mono-Q ion exchange fraction)
Type: biochemical
Method: The cyclic GMP specific phosphodiesterase (PDE 5) was isolated from human platelet lysates by ion exchange chromatography using a Mono-Q column. The enzyme activity was determined using 0.25 mM [3H]-cyclic GMP as substrate. The purification of the enzyme and the assessment of the PDE 5 inhibitory activity of our compounds were performed essentially as described by Gristwood et al., Br. J. Pharmacol. 1992, 105, 985–991.

Row | Molecule | IC50
1 | N-(3-Dimethylamino-2,2-dimethylpropyl)-3-(oxopropyl-6,9-dihydro-5H-[1,2,4]triazolo[3,4-i]purin-8-yl)-4-propoxybenzenesulfonamide [Example 101] | 0.54 nM
2 | CCCOc1ccc(S(=O)(=O)N2CCN(CCO)CC2)cc1-c1nc2c([nH]1)c1nncn1c(=O)n2CCC [Example 27, 8-{5-[4-(2-Hydroxyethyl)piperazine-1-sulphonyl]-2-propoxyphenyl}-6-propyl-6,9-dihydro-[1,2,4]triazolo[3,4-i]purin-5-one] | 4 nM
3 | 8-[5-(4-Methyl-[1,4]diazepane-1-sulfonyl)-2-propoxyphenyl]-6-propyl-6,9-dihydro-[1,2,4]triazolo[3,4-i]purin,5-one [Example 22] | 3.7 nM
4 | CCCCn1c(=O)n2cnnc2c2[nH]c(-c3cc(S(=O)(=O)N4CCN(C(C)(C)CO)CC4)ccc3OCCC)nc21 [Example 138, 6-Butyl-8-{5-[4-(2-hydroxy-1,1-dimethylethyl)piperazine-1-sulfonyl]-2-propoxyphenyl}-6,9-dihydro-[1,2,4]triazolo[3,4-i]purin-5-one] | 0.84 nM
5 | CCCOc1ccc(S(=O)(=O)N2CCN(C)CC2)cc1-c1nc2c([nH]1)c1nncn1c(=O)n2CCC [Example 18, 8-[5-(4-Methylpiperazinosulphonyl)-2-propoxyphenyl]-6-propyl-6,9-dihydro-[1,2,4]triazolo[3,4-i]purin-5-one] | 14 nM
6 | CCCOc1ccc(S(=O)(=O)N2C[C@@H]3C[C@H]2CN3C)cc1-c1nc2c([nH]1)c1nncn1c(=O)n2CCC [Example 89, 8-[5-((1S,4S)-5-Methyl-2,5-diazabicyclo[2.2.1]heptane-2-sulfonyl)-2-propoxyphenyl]-6-propyl-6,9-dihydro-[1,2,4]triazolo[3,4-i]purin-5-one] | 0.51 nM
7 | CCCOc1ccc(S(=O)(=O)Nc2ccncc2)cc1-c1nc2c([nH]1)c1nncn1c(=O)n2CCC [Example 17, 3-(5-Oxo-6-propyl-6,9-dihydro-5H-[1,2,4]triazolo[3,4-i]purin-8-yl)-4-propoxy-N-pyridin-4-yl-benzenesulphonamide] | 1.5 nM
8 | CCCOc1ccc(S(=O)(=O)N2C[C@@H](C)N[C@@H](C)C2)cc1-c1nc2c([nH]1)c1nncn1c(=O)n2CCC [Example 93, 8-[5-((3R,5S)-3,5-Dimethylpiperazine-1-sulfonyl)-2-propoxyphenyl]-6-propyl-6,9-dihydro-[1,2,4]triazolo[3,4-i]purin-5-one] | 0.85 nM
9 | CCCCOc1ccc(S(=O)(=O)N2CCN(C)CC2)cc1-c1nc2c([nH]1)c1nncn1c(=O)n2CC [Example 6] | 13 nM
10 | CCCCn1c(=O)n2cnnc2c2[nH]c(-c3cc(S(=O)(=O)N4CCN(CCO)CC4)ccc3OCCC)nc21 [Example 43, 6-Butyl-8-(2-propoxy-5-[4-(2-hydroxyethyl)piperazine-1-sulphonyl]phenyl}-6,9-dihydro[1,2,4]triazolo[3,4-i]purin-5-one] | 4 nM
11 | CCCOc1ccc(S(=O)(=O)N2CCN[C@@H](C)C2)cc1-c1nc2c([nH]1)c1nncn1c(=O)n2CCC [Example 86, 8-[5-((S)-3-Methylpiperazine-1-sulfonyl)-2-propoxyphenyl]-6-propyl-6,9-dihydro-[1,2,4]triazolo[3,4-i]purin-5-one] | 1.4 nM
12 | CCCOc1ccc(S(=O)(=O)N2CC(CN(C)C)C2)cc1-c1nc2c([nH]1)c1nncn1c(=O)n2CCC [Example 91, 8-[5-(3-Dimethylaminomethylazetidine-1-sulfonyl)-2-propoxyphenyl]-6-propyl-6,9-dihydro-[1,2,4]triazolo[3,4-i]purin-5-one] | 0.97 nM
13 | CCCOc1ccc(S(=O)(=O)N2CCN(C)CC2)cc1-c1nc2c([nH]1)c1nncn1c(=O)n2CC [Example 4, 6-Ethyl-8-[5-(4-methylpiperazine-1-sulphonyl)-2-propoxyphenyl]-6,9-dihydro-[1,2,4]triazolo[3,4-i]purin-5-one] | 11 nM
14 | CCCOc1ccc(S(=O)(=O)N2CCN(C(C)(C)CO)CC2)cc1-c1nc2c([nH]1)c1nncn1c(=O)n2CCC [Example 108, 8-{5-[4-(2-Hydroxy-1,1-dimethylethyl)piperazine-1-sulfonyl]-2-propoxyphenyl}-6-propyl-6,9-dihydro-[1,2,4]triazolo[3,4-i]purin-5-one] | 1.6 nM
15 | CCCOc1ccc(S(=O)(=O)N2CCCN(CCO)CC2)cc1-c1nc2c([nH]1)c1nncn1c(=O)n2CCC [Example 105, 8-{5-[4-(2-Hydroxyethyl)-[1,4]diazepane-1-sulfonyl]-2-propoxyphenyl}-6-propyl-6,9-dihydro-[1,2,4]triazolo[3,4-i]purin-5-one] | 0.34 nM
